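Cultured in 96-well plates, cells were exposed to test compound for 48 hours across five concentrations. GI50 marks 50% less growth. TGI denotes the concentration required for complete inhibition of growth.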
Legend:
Experiment in all cases: NCI anticancer screen, dose series, 48 h
786-0 renal = tested on: 786-0 renal
A498 renal = tested on: A498 renal
A549 NSCLC = tested on: A549 NSCLC
ACHN renal = tested on: ACHN renal
BT-549 breast = tested on: BT-549 breast
CAKI-1 renal = tested on: CAKI-1 renal
CCRF-CEM leukemia = tested on: CCRF-CEM leukemia
COLO 205 colon = tested on: COLO 205 colon
DU-145 prostate = tested on: DU-145 prostate
HCC-2998 colon = tested on: HCC-2998 colon
HCT-116 colon = tested on: HCT-116 colon
HCT-15 colon = tested on: HCT-15 colon
HL-60(TB) leukemia = tested on: HL-60(TB) leukemia
HOP-62 NSCLC = tested on: HOP-62 NSCLC
HS 578T breast = tested on: HS 578T breast
HT29 colon = tested on: HT29 colon
IGROV1 ovarian = tested on: IGROV1 ovarian
K-562 leukemia = tested on: K-562 leukemia
KM12 colon = tested on: KM12 colon
LOX IMVI melanoma = tested on: LOX IMVI melanoma
M14 melanoma = tested on: M14 melanoma
MCF7 breast = tested on: MCF7 breast
MDA-MB-231 breast = tested on: MDA-MB-231 breast
MDA-MB-435 = tested on: MDA-MB-435
MOLT-4 leukemia = tested on: MOLT-4 leukemia
NCI-H226 lung = tested on: NCI-H226 lung
NCI-H23 lung = tested on: NCI-H23 lung
NCI-H460 lung = tested on: NCI-H460 lung
NCI-H522 lung = tested on: NCI-H522 lung
NCI/ADR-RES ovarian = tested on: NCI/ADR-RES ovarian
OVCAR-3 ovarian = tested on: OVCAR-3 ovarian
OVCAR-4 ovarian = tested on: OVCAR-4 ovarian
OVCAR-5 ovarian = tested on: OVCAR-5 ovarian
OVCAR-8 ovarian = tested on: OVCAR-8 ovarian
PC-3 prostate = tested on: PC-3 prostate
RPMI-8226 leukemia = tested on: RPMI-8226 leukemia
RXF 393 renal = tested on: RXF 393 renal
SF-268 CNS = tested on: SF-268 CNS
SF-295 CNS = tested on: SF-295 CNS
SF-539 CNS = tested on: SF-539 CNS
SK-MEL-2 melanoma = tested on: SK-MEL-2 melanoma
SK-MEL-28 melanoma = tested on: SK-MEL-28 melanoma
SK-MEL-5 melanoma = tested on: SK-MEL-5 melanoma
SK-OV-3 ovarian = tested on: SK-OV-3 ovarian
SN12C renal = tested on: SN12C renal
SNB-19 CNS = tested on: SNB-19 CNS
SNB-75 CNS = tested on: SNB-75 CNS
SR leukemia = tested on: SR leukemia
SW-620 colon = tested on: SW-620 colon
T-47D breast = tested on: T-47D breast
TK-10 renal = tested on: TK-10 renal
U251 CNS = tested on: U251 CNS
UACC-257 melanoma = tested on: UACC-257 melanoma
UACC-62 melanoma = tested on: UACC-62 melanoma
UO-31 renal = tested on: UO-31 renal

With `Cc1ccccc1C1N=C2Oc3ccccc3C=C2C(=O)N1` (centres undefined) the GI50 (786-0 renal) was 14.1 µM, the TGI (786-0 renal) was over 100 µM and the GI50 (A498 renal) was 0.347 µM. For the same compound, the TGI (A498 renal) was 2.58 µM, the GI50 (A549 NSCLC) was 3.55 µM and the TGI (A549 NSCLC) was over 100 µM. It also gave a GI50 (ACHN renal) of 2.2 µM, a TGI (ACHN renal) of over 100 µM and a GI50 (BT-549 breast) of 7.32 µM. The TGI (BT-549 breast) was over 100 µM, the GI50 (CAKI-1 renal) was 5.46 µM and the TGI (CAKI-1 renal) was over 100 µM. For the same compound, the GI50 (CCRF-CEM leukemia) was 4.63 µM, the TGI (CCRF-CEM leukemia) was over 100 µM and the GI50 (COLO 205 colon) was 1.46 µM. For the same compound, the TGI (COLO 205 colon) was 15 µM, the GI50 (DU-145 prostate) was 2.09 µM and the TGI (DU-145 prostate) was over 100 µM. It also gave a GI50 (HCC-2998 colon) of 4.69 µM, a TGI (HCC-2998 colon) of over 58.7 µM and a GI50 (HCT-116 colon) of 6.37 µM. The TGI (HCT-116 colon) was over 100 µM, the GI50 (HCT-15 colon) was 2.05 µM and the TGI (HCT-15 colon) was over 100 µM. For the same compound, the GI50 (HL-60(TB) leukemia) was 2.42 µM, the TGI (HL-60(TB) leukemia) was 17.7 µM and the GI50 (HOP-62 NSCLC) was 3.39 µM. The TGI (HOP-62 NSCLC) was over 100 µM, the GI50 (HS 578T breast) was 2.82 µM and the TGI (HS 578T breast) was over 100 µM. The GI50 (HT29 colon) was 4.48 µM, the TGI (HT29 colon) was over 100 µM and the GI50 (IGROV1 ovarian) was 9.85 µM. It also gave a TGI (IGROV1 ovarian) of over 100 µM, a GI50 (K-562 leukemia) of 4.01 µM and a TGI (K-562 leukemia) of over 100 µM. The GI50 (KM12 colon) was 15 µM, the TGI (KM12 colon) was over 100 µM and the GI50 (LOX IMVI melanoma) was 30.5 µM. The TGI (LOX IMVI melanoma) was over 100 µM, the GI50 (M14 melanoma) was 0.826 µM and the TGI (M14 melanoma) was 7.66 µM. The GI50 (MCF7 breast) was 0.793 µM, the TGI (MCF7 breast) was over 100 µM and the GI50 (MDA-MB-231 breast) was 1.81 µM. The TGI (MDA-MB-231 breast) was 33.3 µM, the GI50 (MDA-MB-435) was 0.244 µM and the TGI (MDA-MB-435) was 0.824 µM. For the same compound, the GI50 (MOLT-4 leukemia) was 19 µM, the TGI (MOLT-4 leukemia) was over 100 µM and the GI50 (NCI-H226 lung) was over 100 µM. For the same compound, the TGI (NCI-H226 lung) was over 100 µM, the GI50 (NCI-H23 lung) was 2.5 µM and the TGI (NCI-H23 lung) was over 100 µM. For the same compound, the GI50 (NCI-H460 lung) was 4.34 µM, the TGI (NCI-H460 lung) was over 100 µM and the GI50 (NCI-H522 lung) was 0.556 µM. It also gave a TGI (NCI-H522 lung) of 3.32 µM, a GI50 (NCI/ADR-RES ovarian) of 2.96 µM and a TGI (NCI/ADR-RES ovarian) of over 87.8 µM. The GI50 (OVCAR-3 ovarian) was 0.621 µM, the TGI (OVCAR-3 ovarian) was 2.69 µM and the GI50 (OVCAR-4 ovarian) was 11.8 µM. It also gave a TGI (OVCAR-4 ovarian) of over 100 µM, a GI50 (OVCAR-5 ovarian) of 2.51 µM and a TGI (OVCAR-5 ovarian) of over 100 µM. The GI50 (OVCAR-8 ovarian) was 10.9 µM, the TGI (OVCAR-8 ovarian) was over 100 µM and the GI50 (PC-3 prostate) was 0.86 µM. For the same compound, the TGI (PC-3 prostate) was over 100 µM, the GI50 (RPMI-8226 leukemia) was 62.9 µM and the TGI (RPMI-8226 leukemia) was over 100 µM. For the same compound, the GI50 (RXF 393 renal) was 0.488 µM, the GI50 (SF-268 CNS) was 9.2 µM and the TGI (SF-268 CNS) was over 100 µM. The GI50 (SF-295 CNS) was 1.46 µM, the TGI (SF-295 CNS) was over 25.9 µM and the GI50 (SF-539 CNS) was 1.75 µM. It also gave a TGI (SF-539 CNS) of 6.88 µM, a GI50 (SK-MEL-2 melanoma) of 0.535 µM and a TGI (SK-MEL-2 melanoma) of over 100 µM. For the same compound, the GI50 (SK-MEL-28 melanoma) was 4.57 µM, the TGI (SK-MEL-28 melanoma) was over 100 µM and the GI50 (SK-MEL-5 melanoma) was 0.674 µM. For the same compound, the TGI (SK-MEL-5 melanoma) was over 100 µM, the GI50 (SK-OV-3 ovarian) was 0.66 µM and the TGI (SK-OV-3 ovarian) was over 100 µM. The GI50 (SN12C renal) was 8.33 µM, the TGI (SN12C renal) was over 100 µM and the GI50 (SNB-19 CNS) was over 42.9 µM. It also gave a TGI (SNB-19 CNS) of over 100 µM, a GI50 (SNB-75 CNS) of 1.51 µM and a TGI (SNB-75 CNS) of over 100 µM. The GI50 (SR leukemia) was 14.5 µM, the TGI (SR leukemia) was over 88.3 µM and the GI50 (SW-620 colon) was 4.74 µM. The TGI (SW-620 colon) was over 100 µM, the GI50 (T-47D breast) was 1.58 µM and the TGI (T-47D breast) was over 100 µM. For the same compound, the GI50 (TK-10 renal) was 8.06 µM, the TGI (TK-10 renal) was over 100 µM and the GI50 (U251 CNS) was 11.7 µM. It also gave a TGI (U251 CNS) of over 100 µM, a GI50 (UACC-257 melanoma) of over 100 µM and a TGI (UACC-257 melanoma) of over 100 µM. The GI50 (UACC-62 melanoma) was 1.48 µM, the TGI (UACC-62 melanoma) was over 100 µM and the GI50 (UO-31 renal) was 7.5 µM. It also gave a TGI (UO-31 renal) of over 100 µM.
